# In US20150320773A1, “TREATMENT OF INFLAMMATION” (Vascular Biogenics Ltd., priority 2011, published 2015):
# Where two headings read alike, the source gives them in different places.
# Legend:
# [1] = target: TLR7 (Mus musculus, UniProt P58681); conditions: mouse BMDCs; R848; 1.7, 8.5 or 17 μM
# [2] = target: IL-1 receptor (IL-1R) (Mus musculus, UniProt P13504); conditions: mouse BMDCs; 1.7, 8.5 or 17 μM
# [3] = target: TLR2 (Homo sapiens, UniProt O60603); conditions: 1 μM SAA, 5 μg/ml VB-201
# [4] = tested on: Human monocytes (CD14+ cells); experiment: In vitro cell migration (trans-well chemotaxis) assay of human monocytes; format: cell-based
# Experimental: Following incubation, cells were loaded to the upper chamber and allowed to migrate for 3.5 hours towards 0.5% fetal bovine serum/RPMI-1640 medium supplemented with recombinant human MCP-1 and RANTES (50 ng/ml each).
# In order to further ascertain the significance of ERK1/2 phosphorylation and MEK1/2 phosphorylation to monocyte chemotaxis, the effect of the RAF inhibitor GW5074, which reduces MEK and ERK phosphorylation, on monocyte chemotaxis was determined in a trans-well migration assay using a combination of MCP-1 ([…]) and RANTES (70 ng/ml) as attractant. Monocytes were pre-treated with 5 μM GW5074 for 30 minutes prior to seeding in the migration chamber.
# For this purpose, monocytes from healthy donors were pre-incubated for 30 min with either solvent (0.005% ethanol/PBS), phosphatidylcholine (PC; 5 μg/ml), partially oxidized PAPC (24 h oxidation; 40 μg/ml) or PGPC (5 μg/ml), and allowed to migrate towards recombinant human MCP-1 (CCL2; ligand for CCR2) and RANTES (CCL5; ligand for CCR1, CCR3, CCR5, US28) as attractants (50 ng/ml each). […]
# [5] = target: CCR2B (Homo sapiens, UniProt P41597); conditions: escalating doses
# Experimental: (§1) Analyses were performed by Millipore GPCR Profiler Service, by measuring intracellular calcium signal in real time using FLIPR^TETRA device. […] Antagonist percentage inhibition was referenced to EC80 control wells for each tested GPCR.
# [6] = target: CCR5 (Homo sapiens, UniProt P51681); conditions: escalating doses
# Experimental: as §1
# [7] = tested on: Human monocyte-derived dendritic cells (DCs); experiment: cAMP accumulation assay; format: cell-based; conditions: 4 hours; VB-201 1-5 μg/ml; oxidized PAPC escalating doses; forskolin positive control
# Experimental: Cells were incubated for 4 hours at 37° C. in the presence of the phosphodiesterase inhibitors IBMX (Calbiochem; 0.5 mM) and RO-20-1724 (Biomol; 0.5 mM) to prevent cAMP degredation. For the quantification of [^3H]cAMP formation, the incubation was terminated by removal of the medium and addition of 2.5% perchloric acid containing 0.1 mM unlabeled cAMP (Sigma), followed by neutralization with 4.2 M KOH and 1.85 M K2CO3.
# [8] = target: T1, TLR4 (Mus musculus, UniProt Q9QUK6)
# T1 sequence (Q9QUK6 26-835): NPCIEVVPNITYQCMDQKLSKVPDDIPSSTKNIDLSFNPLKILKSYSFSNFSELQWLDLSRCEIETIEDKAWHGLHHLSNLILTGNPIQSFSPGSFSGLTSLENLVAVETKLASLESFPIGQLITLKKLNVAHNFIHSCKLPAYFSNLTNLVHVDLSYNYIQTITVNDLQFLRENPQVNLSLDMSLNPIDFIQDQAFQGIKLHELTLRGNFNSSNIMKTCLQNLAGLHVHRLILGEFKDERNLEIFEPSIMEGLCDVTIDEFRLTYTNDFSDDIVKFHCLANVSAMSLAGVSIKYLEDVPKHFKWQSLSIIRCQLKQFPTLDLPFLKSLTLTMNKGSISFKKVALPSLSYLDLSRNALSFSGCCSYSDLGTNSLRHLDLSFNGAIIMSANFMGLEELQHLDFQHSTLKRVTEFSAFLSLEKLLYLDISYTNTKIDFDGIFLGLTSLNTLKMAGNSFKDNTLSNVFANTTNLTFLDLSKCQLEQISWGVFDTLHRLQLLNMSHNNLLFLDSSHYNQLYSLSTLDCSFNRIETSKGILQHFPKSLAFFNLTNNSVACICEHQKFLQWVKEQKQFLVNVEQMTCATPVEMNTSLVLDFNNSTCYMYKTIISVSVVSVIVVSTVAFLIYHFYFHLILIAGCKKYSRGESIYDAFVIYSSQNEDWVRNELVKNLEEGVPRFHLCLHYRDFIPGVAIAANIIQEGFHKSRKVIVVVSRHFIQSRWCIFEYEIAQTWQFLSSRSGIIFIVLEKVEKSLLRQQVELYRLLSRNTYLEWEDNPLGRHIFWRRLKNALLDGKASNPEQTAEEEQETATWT
# T1 sequence (Q9JHF9 19-160 partner): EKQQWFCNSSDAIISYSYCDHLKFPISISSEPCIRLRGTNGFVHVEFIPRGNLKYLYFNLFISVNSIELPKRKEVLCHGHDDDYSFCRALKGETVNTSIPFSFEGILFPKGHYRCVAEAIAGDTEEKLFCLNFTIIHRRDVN
# Experimental: Cells were washed and re-suspended in lysis buffer containing 1:100 dithiothreitol (DTT) (Bio-Lab), and phosphatase and protease inhibitors (Thermo Scientific). Samples were loaded on a precasted Criterion TGX gel (BIO-RAD, UK) and transferred onto nitrocellulose membrane. Blots were blocked with 5% milk or bovine serum albumin (BSA) in TBST (Tris buffer saline with TWEEN 20) for 1 hour, followed by incubation with primary and secondary antibodies. Membranes were developed using the ECL kit (Thermo Scientific).
# Toll-like receptors were activated in mouse BMDCs (bone marrow dendritic cells) by specific agonists, and the effect of receptor activation was determined via Western blot for phosphorylation of p38 MAP kinase, which is downstream of TLRs.
# [9] = target: 12-LO (12-lipoxygenase) (Homo sapiens, UniProt P18054); conditions: concentrations of up to 10 μM; data not shown
# [10] = tested on: ApoE KO mice; experiment: Atherosclerosis study in ApoE KO mice
# Experimental: Dosing was performed once a day, for 8 weeks (n=1-12/group). […] Lesion area was calculated using a computerized analysis method (Image Pro Plus software, V. 4.5.1.29, Medical Cybernetics Corporation). Aorta lesion area was determined using the Image-Pro Plus software, which measured the staining area covered by Sudan IV stain adhering to the lesioned tissue. Lesion size in the aorta was measured and the percentage of lesioned area was calculated relative to the size of the entire aorta.
# Immunostaining was performed on frozen sections which were fixed with cold acetone and blocked with 4% normal rabbit serum/PBS (Vector Lab). Following incubation with Rat anti-mouse CD68 (Serotec NCA1957; 1:250) and anti-Rat biotinylated antibody (Vector Lab AB-4001; 1:200), signal was developed using Vectastain ABC-Alkaline phosphatase kit and Vector Red Substrate (Vector Lab). Mayer's Hematoxylin was used for counterstaining.
# [11] = tested on: human Neutrophils; experiment: Chemotaxis assay of human neutrophils; conditions: 5 μg/ml; towards LPS or 10% FBS/MCP-3
# Source text: Data are mean±SD from 3 different experiments performed in triplicates. […] Data are mean±SD from 4 different donors tested in triplicates.
# [12] = tested on: THP-1 cells; experiment: AKT and ERK pathway activation in THP-1 cells, Western blot; conditions: 8.5 μM VB-201, 20 min
# Experimental: THP-1 cells were incubated for 16 hrs in RPMI-1640 medium supplemented with 0.5% FBS and 1% Pen/Strep/Glutamine to reduce basal signaling readouts. […] Stimulation with 100 μM GTP-γ-s, an activator of G-proteins, was performed for 2, 5 or 15 minutes. Cells were harvested and analyzed by SDS-PAGE. […] Total ERK1/2 levels serve as loading control.
# The THP1 or HEK293 cell lines were grown in medium supplemented with 0.5% FBS and 1% Pen/Strep/Glutamine. […] Cells were washed twice and harvested with lysis buffer and analyzed by SDS-PAGE. […] Alpha Tubulin levels serve as loading control.
# THP-1 cells were incubated for 16 hrs in RPMI-1640 medium supplemented with 0.5% FBS and 1% Pen/Strep/Glutamine to reduce basal signaling readouts. […] Stimulation with 30 μg/ml of CRP, activator the CD32 and CD64 receptors, was performed for 2, 5 or 15 min. Cells were harvested and analyzed by SDS-PAGE. […] Total ERK1/2 levels serve as loading control.
# Chain of TLR2 (O60603 21-784): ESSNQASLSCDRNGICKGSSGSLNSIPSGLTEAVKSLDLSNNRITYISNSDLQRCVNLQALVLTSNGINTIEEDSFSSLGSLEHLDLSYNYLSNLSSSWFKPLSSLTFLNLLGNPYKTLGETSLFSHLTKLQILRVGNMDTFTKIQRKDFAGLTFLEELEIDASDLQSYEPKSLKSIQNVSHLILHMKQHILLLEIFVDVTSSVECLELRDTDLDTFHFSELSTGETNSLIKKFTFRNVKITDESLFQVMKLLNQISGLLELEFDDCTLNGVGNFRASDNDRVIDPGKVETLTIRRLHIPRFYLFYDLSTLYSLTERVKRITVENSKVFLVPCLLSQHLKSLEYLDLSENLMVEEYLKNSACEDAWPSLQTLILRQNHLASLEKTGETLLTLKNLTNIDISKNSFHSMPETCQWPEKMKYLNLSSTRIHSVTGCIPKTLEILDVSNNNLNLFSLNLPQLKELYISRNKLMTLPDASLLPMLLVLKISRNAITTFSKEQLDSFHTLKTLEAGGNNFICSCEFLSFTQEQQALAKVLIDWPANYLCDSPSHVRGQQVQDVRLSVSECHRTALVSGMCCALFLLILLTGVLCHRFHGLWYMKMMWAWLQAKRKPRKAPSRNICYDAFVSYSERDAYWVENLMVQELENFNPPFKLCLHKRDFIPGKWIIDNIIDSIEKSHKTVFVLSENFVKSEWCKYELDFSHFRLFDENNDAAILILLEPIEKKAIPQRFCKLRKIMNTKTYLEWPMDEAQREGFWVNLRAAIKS
# Chain of TLR7 (P58681 27-1050): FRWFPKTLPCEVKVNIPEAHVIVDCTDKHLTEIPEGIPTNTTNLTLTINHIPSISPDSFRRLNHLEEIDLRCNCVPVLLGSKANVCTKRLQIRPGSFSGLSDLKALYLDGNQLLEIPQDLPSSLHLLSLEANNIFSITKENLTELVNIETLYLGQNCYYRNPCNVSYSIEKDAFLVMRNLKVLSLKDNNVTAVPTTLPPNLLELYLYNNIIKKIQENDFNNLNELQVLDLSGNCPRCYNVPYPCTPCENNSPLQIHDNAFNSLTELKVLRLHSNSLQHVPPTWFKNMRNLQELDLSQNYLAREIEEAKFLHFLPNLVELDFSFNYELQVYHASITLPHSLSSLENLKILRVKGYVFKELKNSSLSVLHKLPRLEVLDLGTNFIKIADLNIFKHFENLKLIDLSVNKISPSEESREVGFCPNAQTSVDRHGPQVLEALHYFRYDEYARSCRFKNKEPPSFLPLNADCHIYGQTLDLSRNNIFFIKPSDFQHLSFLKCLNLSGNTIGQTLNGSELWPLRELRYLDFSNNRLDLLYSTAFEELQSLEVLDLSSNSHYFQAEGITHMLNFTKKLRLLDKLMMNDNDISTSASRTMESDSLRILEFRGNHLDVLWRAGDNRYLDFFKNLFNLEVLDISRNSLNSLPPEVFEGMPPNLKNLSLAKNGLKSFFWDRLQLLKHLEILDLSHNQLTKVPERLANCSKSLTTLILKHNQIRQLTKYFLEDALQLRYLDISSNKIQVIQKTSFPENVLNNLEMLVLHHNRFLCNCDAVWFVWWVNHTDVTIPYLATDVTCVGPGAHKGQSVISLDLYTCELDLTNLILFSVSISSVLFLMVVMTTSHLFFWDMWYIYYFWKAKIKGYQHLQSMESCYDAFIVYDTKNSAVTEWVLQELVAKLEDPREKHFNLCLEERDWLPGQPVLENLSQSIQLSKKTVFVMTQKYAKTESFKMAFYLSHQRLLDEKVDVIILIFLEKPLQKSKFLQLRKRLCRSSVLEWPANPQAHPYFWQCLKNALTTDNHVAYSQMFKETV
# Chain of CCR5 (P51681 whole entry): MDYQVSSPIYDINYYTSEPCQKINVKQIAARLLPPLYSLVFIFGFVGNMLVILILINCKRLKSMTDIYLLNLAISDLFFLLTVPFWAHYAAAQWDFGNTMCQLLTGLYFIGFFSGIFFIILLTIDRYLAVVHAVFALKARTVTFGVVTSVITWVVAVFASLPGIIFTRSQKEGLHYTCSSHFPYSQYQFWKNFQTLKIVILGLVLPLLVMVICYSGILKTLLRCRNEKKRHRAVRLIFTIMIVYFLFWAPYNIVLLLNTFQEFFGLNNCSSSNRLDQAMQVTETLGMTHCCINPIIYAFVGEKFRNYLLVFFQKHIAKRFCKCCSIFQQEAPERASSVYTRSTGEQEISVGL
# Chain of 12-LO (12-lipoxygenase) (P18054 whole entry, species assumed): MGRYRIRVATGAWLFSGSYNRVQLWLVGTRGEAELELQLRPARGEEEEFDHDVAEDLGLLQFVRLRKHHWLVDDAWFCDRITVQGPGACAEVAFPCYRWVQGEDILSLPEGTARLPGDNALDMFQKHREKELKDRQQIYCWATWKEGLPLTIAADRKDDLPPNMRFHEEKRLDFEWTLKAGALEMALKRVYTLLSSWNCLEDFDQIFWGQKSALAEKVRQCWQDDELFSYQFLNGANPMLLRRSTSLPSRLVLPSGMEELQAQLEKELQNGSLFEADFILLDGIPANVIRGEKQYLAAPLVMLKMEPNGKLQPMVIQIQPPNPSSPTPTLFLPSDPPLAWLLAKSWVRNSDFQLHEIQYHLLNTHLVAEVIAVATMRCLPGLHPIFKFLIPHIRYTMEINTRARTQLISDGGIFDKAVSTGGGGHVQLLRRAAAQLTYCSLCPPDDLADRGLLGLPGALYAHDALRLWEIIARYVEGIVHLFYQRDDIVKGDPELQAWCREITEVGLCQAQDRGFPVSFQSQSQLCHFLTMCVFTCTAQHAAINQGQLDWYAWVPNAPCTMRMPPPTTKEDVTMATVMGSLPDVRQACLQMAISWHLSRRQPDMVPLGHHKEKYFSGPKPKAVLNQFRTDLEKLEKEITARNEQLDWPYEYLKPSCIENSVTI
# Chain of CCR2B (P41597 1-360 isoform P41597-2): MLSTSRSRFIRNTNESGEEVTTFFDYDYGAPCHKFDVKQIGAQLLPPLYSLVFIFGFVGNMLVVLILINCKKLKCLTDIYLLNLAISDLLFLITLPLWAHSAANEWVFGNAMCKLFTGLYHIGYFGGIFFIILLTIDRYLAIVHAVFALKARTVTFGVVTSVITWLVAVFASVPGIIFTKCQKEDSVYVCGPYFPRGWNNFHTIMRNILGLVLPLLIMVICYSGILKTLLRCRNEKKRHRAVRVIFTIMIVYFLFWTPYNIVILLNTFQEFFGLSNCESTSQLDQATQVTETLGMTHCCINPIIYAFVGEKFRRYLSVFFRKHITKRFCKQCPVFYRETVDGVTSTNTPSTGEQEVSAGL
# Chain of IL-1 receptor (IL-1R) (P13504 20-576): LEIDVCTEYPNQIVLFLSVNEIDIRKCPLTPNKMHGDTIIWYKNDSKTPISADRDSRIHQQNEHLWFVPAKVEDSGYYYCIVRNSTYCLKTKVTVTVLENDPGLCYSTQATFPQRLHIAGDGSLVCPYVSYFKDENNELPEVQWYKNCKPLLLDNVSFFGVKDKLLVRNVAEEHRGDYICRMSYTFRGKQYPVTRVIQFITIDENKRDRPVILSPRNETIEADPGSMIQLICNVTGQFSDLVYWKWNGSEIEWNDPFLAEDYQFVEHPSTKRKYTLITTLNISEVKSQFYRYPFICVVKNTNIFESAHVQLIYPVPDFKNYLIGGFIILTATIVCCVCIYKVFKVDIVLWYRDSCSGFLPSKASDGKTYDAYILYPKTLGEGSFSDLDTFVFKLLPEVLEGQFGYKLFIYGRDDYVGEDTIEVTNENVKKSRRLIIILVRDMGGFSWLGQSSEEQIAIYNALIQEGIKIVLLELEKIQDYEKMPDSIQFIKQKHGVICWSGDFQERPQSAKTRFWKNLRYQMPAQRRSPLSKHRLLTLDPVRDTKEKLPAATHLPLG
compound,measurement,setting,value
"CCCCCCCCCCCCCCCCOC[C@H](COP(=O)([O-])OCC[N+](C)(C)C)OCCCCC(=O)O [VB-201, (R)-1-hexadecyl-2-(4′-carboxyl)butyl-sn-glycero-3-phosphocholine]",p38 phosphorylation following activation of TLR7,[1],no apparent effect
same,p38 phosphorylation following activation of IL-1 receptor,[2],no apparent effect
same,"activation of p38, ERK1/2 and the NFκB pathway following activation of TLR2 by serum amyloid A",[3]; THP-1 cells,"inhibited activation of p38, ERK1/2 and the NFκB pathway"
same,"activation of p38, ERK1/2 and the NFκB pathway following activation of TLR2 by serum amyloid A",[3]; human CD14+ cells,"inhibited activation of p38, ERK1/2 and the NFκB pathway"
same,C-reactive protein-induced chemotaxis of human monocytes,"[4]; 8.5 μM VB-201, 30 min, 50 ug/ml CRP, 3.5 hours, p<0.01",inhibit chemotaxis induced by CRP
same,reduction of monocyte chemotaxis towards MCP-1 and RANTES (50 ng/ml each),"[4]; 30 min pre-incubation, PC 5 μg/ml, partially oxidized PAPC 40 μg/ml, PGPC 5 μg/ml, VB-201 5 μg/ml",profound inhibition of monocyte chemotaxis
same,"reduction of monocyte migration, MCP-1 as chemoattractant","[4]; VB-201 5 μg/ml, MCP-1 50 ng/ml, compared to solvent control",approximately 80%
same,"reduction of monocyte migration, MIP-1α as chemoattractant","[4]; VB-201 5 μg/ml, MIP-1α 50 ng/ml, compared to solvent control",~68%
same,"reduction of monocyte migration, RANTES as chemoattractant","[4]; VB-201 5 μg/ml, RANTES 100 ng/ml, compared to solvent control",~72%
same,monocyte chemotaxis towards the compound (cell attractant in lower chamber),[4]; data not shown,no monocyte chemotaxis towards VB-201 occurred
same,inhibition of monocyte migration towards HUVEC growth medium,[4]; dose of 5 μg/ml,about 60%
same,monocyte migration towards HUVEC growth medium,[4]; escalating doses,reduced the number of migrating cells in a dose-dependent fashion
same,antagonistic effect against CCR2B,[5],did not induce an antagonistic effect
same,antagonistic effect against CCR5,[6],did not induce an antagonistic effect
same,intracellular cAMP levels,[7],not affected
same,LPS-induced signaling,[8]; RAW 264.7 murine macrophages,inhibited LPS-induced signaling in a dose-dependent manner
same,p38 phosphorylation following activation of TLR4,"[8]; mouse BMDCs, LPS, 1.7, 8.5 or 17 μM",inhibited p^38 phosphorylation in a dose-dependent manner
same,"activation of p38, ERK1/2 and the NFκB pathway following activation of TLR4","[8]; mouse peritoneal macrophages, LPS, 1.7, 8.5 or 17 μM","inhibited activation of p38, ERK1/2 and the NFκB pathway in a dose-dependent manner"
same,inhibition of 12-LO (12-lipoxygenase),[9],No inhibition
same,plaque formation relative to the PBS control,"[10]; 1.5 mg/kg, daily oral gavage, 8 weeks",significantly reduced plaque formation
same,fatty streaks,"[10]; daily oral gavage, 8 weeks, 0.15 or 1.5 mg/kg",markedly reduced
same,macrophage accumulation in the aortic sinus lesion (anti-CD68),[10]; relative to controls,reduced
same,chemotaxis of human Neutrophils,[11],no effect on chemotaxis
same,phospho-AKT(Ser473) levels,[12]; 30 μg/ml CRP,reduction in phospho-ERK1/2 and phospho-AKT(Ser473) levels
same,phospho-ERK1/2 levels,[12]; 30 μg/ml CRP,reduction in phospho-ERK1/2 and phospho-AKT(Ser473) levels
same,phospho-AKT(Ser473) levels,[12]; 100 μM GTP-γ-s,reduction in phospho-ERK1/2 and phospho-AKT (Ser473) levels
same,phospho-ERK1/2 levels,[12]; 100 μM GTP-γ-s,reduction in phospho-ERK1/2 and phospho-AKT (Ser473) levels
same,EGF-induced ERK1/2 phosphorylation,[12]; EGF 200 ng/ml,inhibition of ERK1/2 phosphorylation in the THP-1 monocytic cell line
